What all share (test): growth of human tumour cells (NCI), 48 h
For assay [1], the system named is HS 578T breast.
Assay [2] deals with SNB-19 CNS.
Assay [3] has as its system IGROV1 ovarian.
In assay [4] the test system is U251 CNS.
Assay [5] relates to MDA-MB-435.
For assay [6], the system named is MDA-MB-231 breast.
The subject of assay [7] is NCI-H23 lung.
In assay [8] the test system is HCC-2998 colon.
The test system of assay [9] is OVCAR-3 ovarian.
The test system of assay [10] is CCRF-CEM leukemia.

Several values for one entry are separate records, joined by “and”; a condition that tells them apart may be missing. Equal entries are not always repeated.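 Compound exposure: 48 hours, 5 concentrations, 96-well plates. GI50 = concentration required for 50% inhibition of growth. TGI marks complete inhibition of growth.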

Eight molecules from PubChem BioAssay (NCI) can be followed below.

As for `CCN(Cc1ccccc1C)c1ccc(CO)c(Cl)c1`, the GI50 in assay [1] is 16 µM; in [2], 17.8 µM; in assay [4], 2.84 µM; in [5], 3.67 µM; in assay [6], 13.7 µM; in assay [7], 12.8 µM. In addition, the GI50 in [8] was 14.4 µM; in assay [9], 2.13 µM; in assay [10], 15.5 µM. Further, the TGI in [1] amounted to 42.3 µM; in [2], 52.8 µM; in assay [3], 0.747 µM; in assay [4] it was 17.1 µM; in assay [5], 15.4 µM; in [6], 32 µM. The TGI in assay [7] was 38 µM; in [8], 30.6 µM; in assay [9] it was 9.79 µM; in assay [10] it was 38.2 µM.
Turning to `CC(=O)Oc1ccccc1C(=O)Nc1ncc([N+](=O)[O-])s1`, the GI50 is 1.94 µM in assay [1]; 2.05 µM in [2]; 2.85 µM in [3]; 1.38 µM in assay [4]; 2.13 µM in assay [5]; 1.95 µM in assay [6]. The GI50 in [7] is 1.8 µM; in assay [8], 2.03 µM; in assay [9], 2.76 µM; in assay [10] it was 2.14 µM. The TGI in [1] was 9.97 µM and > 37.5 µM; in assay [2], 45.7 µM and > 100 µM; in assay [3], 20.8 µM and > 100 µM; in assay [4], 20.7 µM and > 100 µM; in assay [5], 7.58 µM and 59.7 µM; in assay [7] it was 6.39 µM and > 63 µM. For the same molecule, the TGI in assay [8] was 13.9 µM and > 100 µM; in [9], 13.1 µM and 36.6 µM; in [10] it was 15.1 µM.
In the case of `Cc1cc(C)c(/C=C2\C(=O)Nc3ccc(NC(=O)CCCCCCC(=O)NO)cc32)[nH]1`, the GI50 was 2.96 µM in assay [1]; 0.93 µM in assay [2]; 2.86 µM in assay [3]; 0.529 µM in assay [4]; 0.44 µM in assay [5]; 1.37 µM in assay [6]. For the same molecule, the GI50 in [7] is 3.79 µM; in assay [8], 5.68 µM; in [9] it was 0.882 µM; in assay [10], 0.311 µM. The TGI in [1] is over 100 µM; in [2], over 100 µM; in assay [3] it was over 100 µM; in assay [4] it was 10.4 µM; in [5] it was over 100 µM; in [6] it was 60 µM. For the same molecule, the TGI in assay [7] is over 100 µM; in assay [8], over 100 µM; in assay [9], over 78.2 µM; in [10], over 100 µM.
For the molecule `CC(C)(S)C(N)C(=O)O` (stereo unspecified), the TGI in assay [1] is over 100 µM; in assay [2] it was over 5000 µM; in assay [3], over 100 µM; in assay [4], over 5000 µM; in assay [5], over 5000 µM; in assay [6] it was over 5000 µM. Also, the TGI is over 5000 µM in assay [7]; 4340 µM in assay [8]; 3990 µM and > 100 µM in [9]; over 5000 µM in assay [10]. In addition, the GI50 is 3370 µM in [2]; 1780 µM in assay [4]; 1890 µM in [5]; 2660 µM in [6]; 1510 µM in assay [7]; 1450 µM in assay [8]. In addition, the values for the GI50 in [9] and in assay [10] were 1250 µM and 612 µM, respectively.
Consider `C#COc1cccc(Nc2c(C#N)cnc3ncc(NC(=O)CCl)cc23)c1`, for which the GI50 is over 62.5 µM in assay [1]; 32.1 µM in assay [2]; 17.1 µM in [3]; 12.5 µM in [4]; over 62.5 µM in assay [5]; 32 µM in assay [6]. The GI50 in assay [7] was over 62.5 µM; in assay [8], over 62.5 µM; in assay [9] it was 25.3 µM; in [10], 3.72 µM. The TGI in assay [1] was over 62.5 µM; in assay [2], over 62.5 µM; in assay [3], over 62.5 µM; in assay [4] it was 53.6 µM; in [5], over 62.5 µM; in [6] it was over 62.5 µM. The TGI in assay [7], in assay [8], in [9] and in [10] was over 62.5 µM throughout.
Consider `CCOC(=O)/C=C(/C)Sc1cc(O)c2ccccc2c1O`, for which the GI50 in assay [1] was 2.26 µM; in assay [2], 4.05 µM; in assay [3], 2.26 µM; in assay [4], 4.31 µM; in [5], 1.75 µM; in assay [6] it was 2.67 µM. Besides, the GI50 in assay [7] was 2.07 µM; in assay [8], 16.2 µM; in [9], 2 µM; in [10], 2.73 µM. Further, the TGI in [1] is 6.58 µM; in assay [2], 17 µM; in assay [3], 17.8 µM; in assay [4] it was 24 µM; in assay [5], 3.28 µM; in assay [6], 15.3 µM. For the same molecule, the TGI worked out at 5.67 µM in [7], 31.1 µM in assay [8], 5.1 µM in [9] and 6.83 µM in assay [10].
`c1ccc2nc3c(nc2c1)sc1ccccc13`: the TGI was over 100 µM in assay [1]; 42.2 µM in assay [2]; 51 µM in assay [3]; 34.1 µM in assay [4]; over 100 µM in assay [5]; over 100 µM in assay [6]. Also, the TGI in assay [7] is 71.1 µM; in [8], over 100 µM; in assay [9], over 100 µM; in assay [10], over 100 µM.
Take `C1=C\COCc2cc(ccc2OCCN2CCCC2)Nc2nccc(n2)-c2cccc(c2)COC/1`: the GI50 in assay [1] was 1.18 µM; in assay [2], 2.68 µM; in assay [3] it was 0.871 µM; in [4], 2.49 µM; in [5], 1.53 µM; in assay [6], 1.92 µM. In addition, the GI50 was 2.09 µM in assay [7], 2.3 µM in [8], 2.01 µM in assay [9] and 2.56 µM in [10]. Further, the TGI worked out at 5.78 µM in assay [1]; 7.07 µM in [2]; 3.85 µM in assay [3]; 5.21 µM in assay [4]; 4.65 µM in assay [5]; 5.61 µM in assay [6]. Further, the TGI amounted to 5.79 µM in [7], 5.37 µM in assay [8], 5.57 µM in assay [9] and 7 µM in assay [10].
